Assays:
[1] = tested on: HeLa cells or neuronal cells; experiment: Cell death assay of Example 3 (MNNG, alamarBlue; protection against parthanatos, Table 4); assay type: cell-based; conditions: 1 μM test compound; for (%) inhibition of cell death: MNNG-induced cell death, alamarBlue
Outline: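 HeLa or neuronal cells (1×10^4/well) were pretreated 1 h at 37° C with 1 μM compound, exposed to MNNG for 15 min, washed, then re-incubated 18 h with 1 μM compound. Viability was read by alamarBlue fluorescence (ex 560/em 590 nm). Cell death was expressed relative to control wells.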

MIF = biological target: T1, MIF (Homo sapiens, UniProt P14174); experiment: Nuclease assay of Example 3 (MIF inhibitory activity, Table 4); assay type: biochemical; set-up: (%) inhibition of MIF nuclease activity: concentration or dose not given beside the values; conditions: for (%) inhibition of MIF nuclease activity: nuclease assay of Example 3
T1 sequence (P14174 1-115): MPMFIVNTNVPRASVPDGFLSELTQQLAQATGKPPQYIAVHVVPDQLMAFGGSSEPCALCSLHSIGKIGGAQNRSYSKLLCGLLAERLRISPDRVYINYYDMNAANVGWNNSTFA
Outline: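 Human genomic DNA (200 ng), pcDNA (200 ng) or PS^30-type substrates (1 μM) were incubated with MIF (0.25-8 μM final) in 10 mM Tris-HCl pH 7.0, 10 mM MgCl2, 1 mM DTT at 37 °C for 1 h (pcDNA, small substrates) or 4 h (genomic DNA). Cleavage was assessed by agarose or PAGE electrophoresis with EtBr staining and chemiluminescent detection of biotin-labelled DNA.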

Row | SMILES | MIF nuclease activity (MIF) | (%) inhibition of MIF nuclease activity (MIF) [%] | protection against parthanatos (cell death) [1] | (%) inhibition of cell death [1] [%] | (%) inhibition of cell death ([1]; 1 µM) [%]
1 | COc1ccc(CC[C@H]2OC(=O)[C@@H]3CCCCN3C(=O)C(=O)C(C)(C)COC(=O)C=CCCN(C)C(=O)[C@@H]3CCCCN3C(=O)[C@H](COC(C)(C)C)N(C)C(=O)C(c3ccccc3)NC(=O)[C@H](C)N(C)C(=O)COc3cccc2c3)cc1OC (stereo partly shown) [compound 92] | do not inhibit MIF nuclease activity | 9.0 | protect against parthanatos | 72.1 | –
2 | COc1ccc(CC[C@H]2OC(=O)[C@@H]3CCCCN3C(=O)C(=O)C(C)(C)COC(=O)C=CCCN(C)C(=O)[C@@H]3CC(O)CN3C(=O)[C@H](COC(C)(C)C)N(C)C(=O)C(c3ccccc3)NC(=O)[C@H](C)N(C)C(=O)COc3cccc2c3)cc1OC (stereo partly shown) [compound 93] | – | 14.6 | – | 66.8 | –
3 | COc1ccc(CC[C@H]2OC(=O)[C@@H]3CCCCN3C(=O)C(=O)C(C)(C)COC(=O)C=CCCN(C)C(=O)[C@H](C)N(C)C(=O)[C@H](COC(C)(C)C)N(C)C(=O)C(c3ccccc3)NC(=O)[C@H](C)N(C)C(=O)COc3cccc2c3)cc1OC (stereo partly shown) [compound 94] | – | 12.0 | – | 12.1 | –
4 | COc1ccc(CC[C@H]2OC(=O)[C@@H]3CCCCN3C(=O)C(=O)C(C)(C)COC(=O)C=CCCN(C)C(=O)[C@@H]3CCCN3C(=O)[C@H](COCc3ccccc3)N(C)C(=O)C(c3ccccc3)NC(=O)[C@H](C)N(C)C(=O)COc3cccc2c3)cc1OC (stereo partly shown) [compound 96] | – | 32.7 | – | 69.1 | –
5 | COc1ccc(CC[C@H]2OC(=O)[C@@H]3CCCCN3C(=O)C(=O)C(C)(C)COC(=O)C=CCCN(C)C(=O)[C@@H]3CCCN3C(=O)[C@H](COC(C)(C)C)N(C)C(=O)[C@H](C)NC(=O)[C@H](C)N(C)C(=O)COc3cccc2c3)cc1OC [compound 100] | – | 13.4 | – | 26.1 | –
6 | COc1ccc(CC[C@H]2OC(=O)[C@@H]3CCCCN3C(=O)C(=O)C(C)(C)COC(=O)C=CCCN(C)C(=O)[C@@H]3CCCN3C(=O)[C@H](COC(C)(C)C)N(C)C(=O)[C@H](Cc3ccccc3)NC(=O)[C@H](C)N(C)C(=O)COc3cccc2c3)cc1OC [compound 101] | – | 9.1 | – | 31.5 | –
7 | COc1ccc(CC[C@H]2OC(=O)[C@@H]3CCCCN3C(=O)C(=O)C(C)(C)COC(=O)C=CCCN(C)C(=O)[C@@H]3CCCN3C(=O)[C@H](COC(C)(C)C)N(C)C(=O)C(c3ccccc3)NC(=O)[C@H](C)N(C)C(=O)COc3cccc2c3)cc1OC (stereo partly shown) [compound 102] | – | 59.5 | – | – | 77.7
8 | COc1ccc(CC[C@H]2OC(=O)[C@@H]3CCCCN3C(=O)C(=O)C(C)(C)COC(=O)C=CCCN(C)C(=O)[C@@H]3CCCN3C(=O)[C@H](COC(C)(C)C)N(C)C(=O)[C@H](Cc3ccc(F)cc3)NC(=O)[C@H](C)N(C)C(=O)COc3cccc2c3)cc1OC [compound 103] | – | 16.8 | – | 22.5 | –
9 | COc1ccc(CC[C@H]2OC(=O)[C@@H]3CCCCN3C(=O)C(=O)C(C)(C)COC(=O)C=CCCN(C)C(=O)[C@@H]3CCCN3C(=O)[C@H](COC(C)(C)C)N(C)C(=O)C(c3ccccc3)NC(=O)[C@@H](C)N(C)C(=O)COc3cccc2c3)cc1OC (stereo partly shown) [compound 106] | – | 11.9 | – | 13.1 | –
10 | COc1ccc(CC[C@H]2OC(=O)[C@@H]3CCCCN3C(=O)C(=O)C(C)(C)COC(=O)C=CCCN(C)C(=O)[C@@H]3CCCN3C(=O)[C@H](COC(C)(C)C)N(C)C(=O)C(c3ccccc3)NC(=O)CN(C)C(=O)COc3cccc2c3)cc1OC (stereo partly shown) [compound 107] | – | 20.0 | – | – | 15.1
11 | COc1ccc(CC[C@H]2OC(=O)[C@@H]3CCCCN3C(=O)C(=O)C(C)(C)COC(=O)C=CCCN(C)C(=O)[C@@H]3CCCN3C(=O)[C@H](CO)N(C)C(=O)C(c3ccccc3)NC(=O)C(CO)N(C)C(=O)COc3cccc2c3)cc1OC (stereo partly shown) [compound 108] | – | 4.2 | – | 20.4 | –
12 | COc1cc(CC[C@H]2OC(=O)[C@@H]3CCCCN3C(=O)C(=O)C(C)(C)COC(=O)C=CCCN(C)C(=O)[C@@H]3CCCN3C(=O)[C@H](COC(C)(C)C)N(C)C(=O)C(c3ccccc3)NC(=O)[C@H](C)N(C)C(=O)COc3cccc2c3)cc(F)c1OC (stereo partly shown) [compound 111] | – | 6.8 | – | 48.9 | –
13 | COc1ccc(CC[C@H]2OC(=O)[C@@H]3CCCCN3C(=O)C(=O)C(C)(C)COC(=O)C=CCCN(C)C(=O)[C@@H]3CCCN3C(=O)[C@H](COC(C)(C)C)N(C)C(=O)C(c3ccccc3)NC(=O)[C@H](C)N(C)C(=O)COc3cc2ccc3F)cc1OC (stereo partly shown) [compound 114] | – | −2.4 | – | 44.9 | –
14 | COc1ccc(CC[C@H]2OC(=O)[C@@H]3CN(C)CCN3C(=O)C(=O)C(C)(C)COC(=O)C=CCCN(C)C(=O)[C@@H]3CCCN3C(=O)[C@H](COC(C)(C)C)N(C)C(=O)C(c3ccccc3)NC(=O)[C@H](C)N(C)C(=O)COc3cccc2c3)cc1OC (stereo partly shown) [compound 118] | – | 9.0 | – | 50.8 | –
15 | COc1ccc(CC[C@H]2OC(=O)[C@@H]3CCCCN3C(=O)C(=O)C(C)(C)COC(=O)C=CCCN(C)C(=O)[C@@H]3CCCN3C(=O)[C@H](COC(C)(C)C)N(C)C(=O)C(c3ccccc3)NC(=O)[C@H](C)N(C)C(=O)COc3cccc2c3)c(O)c1OC (stereo partly shown) [compound 119] | – | 19.7 | – | 60.7 | –
16 | COc1cc(OC)c(OC)cc1CC[C@H]1OC(=O)[C@@H]2CCCCN2C(=O)C(=O)C(C)(C)COC(=O)C=CCCN(C)C(=O)[C@@H]2CCCN2C(=O)[C@H](COC(C)(C)C)N(C)C(=O)C(c2ccccc2)NC(=O)[C@H](C)N(C)C(=O)COc2cccc1c2 (stereo partly shown) [compound 122] | – | 10.7 | – | 64.3 | –

The next lines start with results.

Row | MIF nuclease activity (MIF) | (%) inhibition of MIF nuclease activity (MIF) [%] | SMILES | protection against parthanatos (cell death) [1] | (%) inhibition of cell death [1] [%] | (%) inhibition of cell death ([1]; 1 µM) [%]
17 | – | 13.2 | COc1ccc(CC[C@H]2OC(=O)[C@@H]3CCCCN3C(=O)C(=O)C(C)(C)COC(=O)C=CCCN(C)C(=O)[C@@H]3CCCN3C(=O)[C@H](COC(C)(C)C)N(C)C(=O)[C@H](Cc3ccncc3)NC(=O)[C@H](C)N(C)C(=O)COc3cccc2c3)cc1OC [compound 104] | – | 20.4 | –
18 | – | 9.3 | COc1cc(F)c(CC[C@H]2OC(=O)[C@@H]3CCCCN3C(=O)C(=O)C(C)(C)COC(=O)C=CCCN(C)C(=O)[C@@H]3CCCN3C(=O)[C@H](COC(C)(C)C)N(C)C(=O)C(c3ccccc3)NC(=O)[C@H](C)N(C)C(=O)COc3cccc2c3)cc1OC (stereo partly shown) [compound 109] | – | 52.9 | –
19 | – | 20.9 | COc1cc(F)c(CCC2OC(=O)[C@@H]3CCCCN3C(=O)C(=O)C(C)(C)COC(=O)C=CCCN(C)C(=O)[C@@H]3CCCN3C(=O)[C@H](COC(C)(C)C)N(C)C(=O)C(c3ccccc3)NC(=O)[C@H](C)N(C)C(=O)COc3cccc2c3)cc1OC (stereo partly shown) [compound 110] | – | 59.3 | –
20 | – | 19.2 | COc1ccc(CC[C@H]2OC(=O)[C@@H]3CCCCN3C(=O)C(=O)C(C)(C)COC(=O)C=CCCN(C)C(=O)[C@@H]3CCCN3C(=O)[C@H](COC(C)(C)C)N(C)C(=O)C(c3ccccc3)NC(=O)[C@H](C)N(C)C(=O)COc3ccc(F)c2c3)cc1OC (stereo partly shown) [compound 112] | – | 48.3 | –
21 | – | 26.8 | COc1cc(CC[C@H]2OC(=O)[C@@H]3CCCCN3C(=O)C(=O)C(C)(C)COC(=O)C=CCCN(C)C(=O)[C@@H]3CCCN3C(=O)[C@H](COC(C)(C)C)N(C)C(=O)C(c3ccccc3)NC(=O)[C@H](C)N(C)C(=O)COc3cccc2c3)c(OC)c(OC)c1 (stereo partly shown) [compound 113] | – | 66.1 | –
22 | – | 8.7 | COc1cc(CC[C@H]2OC(=O)[C@@H]3CCCCN3C(=O)C(=O)C(C)(C)COC(=O)C=CCCN(C)C(=O)[C@@H]3CCCN3C(=O)[C@H](COC(C)(C)C)N(C)C(=O)C(c3ccccc3)NC(=O)[C@H](C)N(C)C(=O)COc3cccc2c3)cc(OC)c1OC (stereo partly shown) [compound 115] | – | 47.9 | –
23 | – | −4.7 | COc1cc(O)c(CC[C@H]2OC(=O)[C@@H]3CCCCN3C(=O)C(=O)C(C)(C)COC(=O)C=CCCN(C)C(=O)[C@@H]3CCCN3C(=O)[C@H](COC(C)(C)C)N(C)C(=O)C(c3ccccc3)NC(=O)[C@H](C)N(C)C(=O)COc3cccc2c3)cc1OC (stereo partly shown) [compound 116] | – | 50.9 | –
24 | – | −5.1 | COc1ccc(CC[C@H]2OC(=O)[C@@H]3CCCCN3C(=O)C(=O)C(C)(C)COC(=O)C=CCCN(C)C(=O)[C@@H]3CCCN3C(=O)[C@H](COC(C)(C)C)N(C)C(=O)C(c3ccccc3)NC(=O)[C@H](C)N(C)C(=O)COc3cccc2c3)c(F)c1OC (stereo partly shown) [compound 117] | – | 51.8 | –
25 | – | 7.1 | COc1cc(CC[C@H]2OC(=O)[C@@H]3CCCCN3C(=O)C(=O)C(C)(C)COC(=O)C=CCCN(C)C(=O)[C@@H]3CCCN3C(=O)[C@H](COC(C)(C)C)N(C)C(=O)C(c3ccccc3)NC(=O)[C@H](C)N(C)C(=O)COc3cccc2c3)cc(O)c1OC (stereo partly shown) [compound 120] | – | 45.8 | –
